Source: patent publication US20090124691A1, “INHIBITOR OF INCREASE IN POSTPRANDIAL BLOOD INSULIN LEVEL” (Kao Corporation, priority 2006, published 2009)

Test system: blood insulin level
Assay: Effect of monoacylglycerol in inhibiting postprandial increase in blood insulin level in mouse (oral emulsion, ELISA, AUC)
Type: in vivo, Male C57BL/6J mice
Details: mice, TAG compared with only glucose, MAG in an amount of 1/10 or 1/5 of that of TAG compared with TAG/MAG0 group
Experimental: Triolein was employed as a triacylglycerol, and 1-monoolein was employed as a monoacylglycerol.
Male C57BL/6J mice (eight weeks old) were divided into groups (eight mice each). Through a probe, mice of the respective groups were orally administered the following substance: only glucose (2 mg/g-body weight) (Glucose); glucose (2 mg/g-body weight) plus triolein (TAG) (2 mg/g-body weight) emulsified with egg yolk lecithin (0.02 mg/g-body weight) (TAG/MAGO); TAG/MAGO supplemented with 1-monoolein (MAG) of 0.08, 0.2 and 0.4 mg/g-body weight, respectively (TAG/MAG1, TAG/MAG2 and TAG/MAG3). […] Blood was collected from the orbital vein of each mouse over time until 30 minutes after oral administration, and blood insulin level was measured, followed by calculation of the area under the curve (AUC) of a graph. Blood insulin level was measured through ELISA (insulin assay kit, product of Morinaga Institute of Biological Science, Inc.).

## CCCCCCCC/C=C\CCCCCCCC(=O)OCC(O)CO (stereo not shown) [MAG, 1-monoolein]
  postprandial blood insulin level (amount of postprandial insulin secretion), result in words: decreased postprandial blood insulin level
